From publication PMC8160813, “Design, Synthesis, and Evaluation of Dihydropyranopyrazole Derivatives as Novel PDE2 Inhibitors for the Treatment of Alzheimer’s Disease” (Molecules, 2021)

What was measured:
Format in all cases: biochemical
[1] = target: T1, PDE2A (catalytic domain, 580–919) (Homo sapiens, UniProt O00408); test: In vitro PDE2 enzymatic inhibition assay (3H-cGMP substrate); conditions: for inhibition at 0.1 µM / inhibition at 0.5 µM: PDE2; for inhibition at 0.1 µM: compound at 0.1 μM, read-out: Inhibition Ratio (%) 0.1 μM; for inhibition at 0.5 µM: compound at 0.5 μM, read-out: Inhibition Ratio (%) 0.5 μM; for IC50: means ± SD of three experiments, 3H-cGMP, 25 °C, 15 min, read-out: IC50 (nM) against PDE2
T1 construct: made in house; host or cells: E. coli BL21 (CodonPlus)
T1 sequence (O00408 580-919): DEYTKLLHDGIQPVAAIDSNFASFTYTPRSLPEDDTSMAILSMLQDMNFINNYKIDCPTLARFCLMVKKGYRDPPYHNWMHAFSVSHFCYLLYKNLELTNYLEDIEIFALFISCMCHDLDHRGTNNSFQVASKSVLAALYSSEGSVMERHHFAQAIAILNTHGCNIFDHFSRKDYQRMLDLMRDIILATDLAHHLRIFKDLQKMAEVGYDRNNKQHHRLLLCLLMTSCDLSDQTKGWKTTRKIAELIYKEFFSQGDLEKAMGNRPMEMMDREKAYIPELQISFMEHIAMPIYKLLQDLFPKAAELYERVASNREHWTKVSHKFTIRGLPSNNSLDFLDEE
Description: Purification and expression of the recombinant pET15b-PDE2A plasmid (catalytic domain, 580–919) was performed following our previously reported method. The plasmid pET15b-PDE2A (catalytic domain, 580–919) was transferred to thawed competent E. coli BL21 cells (CodonPlus, Agilent Technologies, Santa Clara, CA, USA), which were grown in 2XYT medium with 100 μg/mL ampicillin and 20 μg/mL chloramphenicol at 37 °C until OD600 = 0.6–0.8. Then, 0.1 mM isopropylthiogalactoside was added for induction, and protein expression was induced by continuing to grow the cells at 16 °C for 24 h. After that, bacteria were collected by centrifugation and frozen overnight at −20 °C. The bacteria containing the recombinant plasmid of the target protein were subjected to cell disruption and passed through a Ni-NTA agarose affinity column, Q-Sepharose ion-exchange column and other steps. The purity can be 95% or more, and a typical purification batch produces 10–20 mg of PDE2A protein from 1.0 L of cell culture.
Using the appropriate concentration of ^3H-cGMP as the substrate, different compound solutions were added to the test group, DMSO was added to the negative control and blank control groups, and EHNA was added to the positive control group, followed by protein solution (the proteins were all diluted with Assay Buffer); Assay Buffer was added to the blank group. The enzymatic reaction was performed at room temperature (25 °C) for 15 min, and then, 0.2 M ZnSO4 was added to inactivate PDE2 and to stop the reaction. Then, 0.2 N Ba(OH)2 solution was added to precipitate the reaction product, and unreacted ^3H-cGMP remained in the supernatant. After mixing the system, it was centrifuged. The radioactivity of the supernatant was measured with a liquid scintillation counter, and the inhibitory activity of the compound against PDE2 was calculated. The above test was repeated three times (the IC50 test generally used 9 concentrations, and the single-point test was directly diluted with DMSO to the required concentration).

PDE1C (2–634) = target: T2, PDE1C (2–634) (Homo sapiens, UniProt Q14123); test: PDE selectivity enzymatic assay, PDE1C; conditions: Table 2 selectivity panel
T2 construct: PDE1C (2–634)
T2 sequence (Q14123 2-634 isoform Q14123-2): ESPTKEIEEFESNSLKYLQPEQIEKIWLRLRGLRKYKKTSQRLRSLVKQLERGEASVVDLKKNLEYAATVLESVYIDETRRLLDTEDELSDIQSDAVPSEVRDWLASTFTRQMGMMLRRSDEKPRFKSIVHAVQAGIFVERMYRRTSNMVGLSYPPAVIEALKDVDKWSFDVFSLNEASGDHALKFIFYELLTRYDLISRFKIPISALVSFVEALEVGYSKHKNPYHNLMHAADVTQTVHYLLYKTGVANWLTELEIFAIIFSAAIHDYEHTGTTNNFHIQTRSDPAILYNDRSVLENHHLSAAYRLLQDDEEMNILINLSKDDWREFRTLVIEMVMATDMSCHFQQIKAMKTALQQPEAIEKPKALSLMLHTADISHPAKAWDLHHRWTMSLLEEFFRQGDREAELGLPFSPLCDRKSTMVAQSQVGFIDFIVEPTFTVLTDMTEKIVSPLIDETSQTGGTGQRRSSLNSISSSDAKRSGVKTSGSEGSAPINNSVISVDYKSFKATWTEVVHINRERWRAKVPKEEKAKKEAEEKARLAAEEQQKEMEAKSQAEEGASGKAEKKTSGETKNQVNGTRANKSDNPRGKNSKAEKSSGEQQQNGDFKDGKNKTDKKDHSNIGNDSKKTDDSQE

PDE4D2 (86–413) = target: T3, PDE4D2 (86–413) (Homo sapiens, UniProt Q08499); test: PDE selectivity enzymatic assay, PDE4D2; conditions: Table 2 selectivity panel
T3 construct: PDE4D2 (86–413)
T3 sequence (Q08499 388-715): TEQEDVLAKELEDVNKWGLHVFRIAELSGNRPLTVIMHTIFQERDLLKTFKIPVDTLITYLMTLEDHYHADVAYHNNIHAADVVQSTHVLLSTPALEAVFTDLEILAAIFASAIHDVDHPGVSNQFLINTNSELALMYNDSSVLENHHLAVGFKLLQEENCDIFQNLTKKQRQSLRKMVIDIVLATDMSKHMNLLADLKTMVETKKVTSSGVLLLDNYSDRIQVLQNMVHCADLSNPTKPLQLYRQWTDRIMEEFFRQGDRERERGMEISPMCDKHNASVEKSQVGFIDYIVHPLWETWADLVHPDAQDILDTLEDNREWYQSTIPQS

SMILES	inhibition at 0.1 µM [1]	inhibition at 0.5 µM [1]	IC50 [1]	IC50 (PDE1C (2–634))	IC50 (PDE4D2 (86–413))
COc1ccc(OCc2ccc(C(F)(F)F)cc2)c(C2C(C#N)=C(N)Oc3[nH]nc(C)c32)c1 (single isomer, unassigned; (+)) [(+)-11h]	75.9%	93.6%	41.5 ± 3.4 nM	8760 ± 668 nM	> 10000 nM
COc1ccc(OCc2ccc(C(F)(F)F)cc2)c(C2C(C#N)=C(N(C)C)Oc3[nH]nc(C)c32)c1 (stereo not shown) [Compound 16, 6-(Dimethylamino)-4-(5-methoxy-2-((4-(trifluoromethyl)benzyl)oxy)phenyl)-3-methyl-1,4-dihydropyrano[2,3-c]pyrazole-5-carbonitrile]		9.6%			

The remaining lines, values ahead:

inhibition at 0.1 µM [1]	inhibition at 0.5 µM [1]	IC50 [1]	IC50 (PDE1C (2–634))	IC50 (PDE4D2 (86–413))	SMILES
22.7%	60.5%	445.3 ± 3.4 nM			COc1ccc(OCc2ccc(C(F)(F)F)cc2)c(C2C(C#N)=C(N)Oc3[nH]ncc32)c1 (stereo not shown) [Compound 11r, 6-Amino-4-(5-methoxy-2-((4-(trifluoromethyl)benzyl)oxy)phenyl)-1,4-dihydropyrano[2,3-c]pyrazole-5-carbonitrile]
46.3%	75.3%	154 ± 6.2 nM			COc1ccc(OCc2ccc(C(F)(F)F)cc2)c(C2C(C#N)=C(N)Oc3[nH]nc(-c4ccccc4)c32)c1 (stereo not shown) [Compound 11s, 6-Amino-4-(5-methoxy-2-((4-(trifluoromethyl)benzyl)oxy)phenyl)-3-phenyl-1,4-dihydropyrano[2,3-c]pyrazole-5-carbonitrile]
	10.3%				COc1cc(C2C(C#N)=C(N)Oc3[nH]nc(C)c32)c(OCc2ccc(C(F)(F)F)cc2)cc1Cl (stereo not shown) [Compound 11t, 6-Amino-4-(4-chloro-5-methoxy-2-((4-(trifluoromethyl)benzyl)oxy)phenyl)-3-methyl-1,4-dihydropyrano[2,3-c]pyrazole-5-carbonitrile]
